Assay results as given in patent US7195885B2, “Hepatitis C virus assays” (Bristol-Myers Squibb Company, priority 2002, dated 2007).

Key:
[1] = tested on: HCV replicon cell line (Huh-7); test: Alamar Blue cytotoxicity assay step; format: cell-based
[2] = tested on: HCV replicon cell line (HCV RNA); test: Quantitative RT-PCR of HCV RNA in the HCV replicon cell line
[3] = tested on: HCV replicon cell line (NS3 protease activity); test: HCV replicon FRET assay (NS3 protease activity as indirect measure of HCV RNA replication)
Protocol: The HCV replicon cell line was isolated from colonies as described by Lohman et al. al. (Lohman, supra) and used for all experiments.
These cell lines were maintained at 37° C., 5% CO2, 100% relative humidity in DMEM (Life Technologies #11965-084) with 10% heat inactivated calf serum (Sigma #F-2442), 100 U/ml of penicillin/streptomycin (Life Technologies #15140-122), Geneticin at 1 mg/ml (Life Technologies #10131-027). One of the cell lines which had approximately 3,000 copies of HCV replicon RNA/cell was used for development of the assay.
To perform the HCV FRET screening assay, 96-well cell culture plates were used.
The assay reagent was made as follows: 5× cell Luciferase cell culture lysis reagent from Promega (#E153A) diluted to 1× with dH2O, NaCl added to 150 mM final, the FRET peptide diluted to 20 uM final from a 2 mM stock. Cells were trypsinized, placed into each well of a 96-well plate and allowed to attach overnight. The next day, the test compounds were added to columns 1 through 10; column 11 was media only, and column 12 contained a titration of interferon as a control (1000 units for A12, B12, 100 units for C12, D12, 10 units for E12, F12 and 1 unit for G12, H12). In addition, replicon cells in A12, B12 can be replaced, if desired, with naïve Huh-7 cells as a negative background control. The plates were then placed back in the incubator.
Subsequent to addition of the test compounds described above (FRET Assay Preparation), at various times the plate was removed and Alamar Blue solution (Trek Diagnostics, #00–100) was added per well as a measure of cellular toxicity.
Compound analysis was determined by quantification of the relative HCV replicon inhibition and the relative cytotoxicity values.

[4] = tested on: HCV replicon cell line (NS3 protein); test: Western analysis of NS3 protein in the HCV replicon cell line; format: cell-based, Hepatitis C virus
Protocol: Experiments were done in duplicate. Western analysis was performed according to the instructions for Amershams Chemiluminescence Immunology Kit (NEL105 Renaissance) using a Molecular Dynamics Storm 860 phosphoimager and associated software. The primary and secondary antibody dilutions were at 1 to 5,000. Antisera was generated by immunizing rabbits with purified NS3 protease made from an E. Coli expression vector encoding the first 181 amino acids of HCV 1a NS3 with subsequent boosts.
Bleeds were tested weekly and boosts continued until a positive signal on a control western was seen. Secondary antibody was a BioRad (#170–6515) Goat anti-Rabbit IgG HRP Conjugate. The protein samples for western analysis were from the same wells used for the FRET assay and were prepared by the addition of an equal volume of 2×SDS-PAGE buffer to the FRET assay mixture, heating and loading on a 10% gel for SDS-PAGE. Interferon alpha (IFN-α) was obtained from Sigma (#I-4276) and stored as recommended.

[5] = FIG. 6A, titration 0.1 to 1,000 units per milliliter, 96 hours of incubation
[6] = interferon titration in HCV replicon cell line

Substance: interferon-α [IFN-α]
- cytotoxicity (Alamar Blue) ([1]; highest concentration of IFN-α, 1000 units, FIG. 7B wells A12 and B12): Approximately 18%
- cytotoxicity (Alamar Blue), in words ([1]; lower concentrations of IFN-α (below 1000 units)): no apparent Alamar Blue staining change
- EC50, RT-PCR [2, 5]: 5.3 units of IFN-α per milliliter
- EC50, qRT-PCR assay [2, 6]: 5.3 units
- EC50, FRET [3, 5]: 2.9 units of IFN-α per milliliter
- EC50, FRET assay [3, 6]: 2.9 units
- EC50 in IFN-α control samples of the compound plate, in words ([3]; random compound plate control titration 1000, 100, 10, 1 units, FIG. 7A): close to or slightly lower than the lowest concentration of IFN-α used
- EC50, Western [4, 5]: 1.9 units of IFN-α per milliliter
- EC50, western assay [4, 6]: 1.9 units
